From ChEMBL document CHEMBL1201862, “PubChem BioAssay data set” (2004)
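Values below derive from 48-hour exposures of cells grown in 96-well plates, with endpoints linearly interpolated between the two concentrations bracketing the appropriate inhibition level. GI50: concentration for 50% inhibition of growth.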 The source made the active and inactive calls. Rule as the data show it: active = GI50 up to about 1.1 µM and inactive = higher.

Legend:
Assay in all cases: NCI tumour cell line growth inhibition, 48 h
SF-539 = tested on: SF-539
HOP-92 = tested on: HOP-92
MDA-MB-231 = tested on: MDA-MB-231
SK-MEL-28 = tested on: SK-MEL-28
T47D = tested on: T47D
MDA-MB-435 = tested on: MDA-MB-435
SW-620 = tested on: SW-620
M14 = tested on: M14
Hs-578T = tested on: Hs-578T
SNB-19 = tested on: SNB-19
A549 = tested on: A549
NCI/ADR-RES = tested on: NCI/ADR-RES
HCT-116 = tested on: HCT-116
SK-OV-3 = tested on: SK-OV-3
OVCAR-3 = tested on: OVCAR-3
SN12C = tested on: SN12C
786-0 = tested on: 786-0
EKVX = tested on: EKVX
NCI-H522 = tested on: NCI-H522
SNB-75 = tested on: SNB-75

Measured: GI50

Cc1nnc(S(=O)(=O)c2ccc(/N=N/c3c(N)nc(N)nc3N)cc2)s1
inactive: SF-539 > 100 µM | HOP-92 > 100 µM | MDA-MB-231 > 100 µM | SK-MEL-28 > 100 µM | T47D > 100 µM | MDA-MB-435 > 100 µM | SW-620 > 100 µM | M14 > 100 µM | Hs-578T > 100 µM | SNB-19 > 100 µM | A549 > 100 µM | NCI/ADR-RES > 100 µM | HCT-116 > 100 µM | SK-OV-3 > 100 µM | OVCAR-3 > 100 µM | SN12C > 100 µM | 786-0 > 100 µM | EKVX > 100 µM | NCI-H522 > 100 µM

O=C(CCC(=O)c1ccsc1)c1ccsc1
inactive: SF-539 > 100 µM | HOP-92 > 100 µM | MDA-MB-231 > 100 µM | SK-MEL-28 > 100 µM | T47D > 100 µM | MDA-MB-435 > 100 µM | SW-620 > 100 µM | M14 > 100 µM | Hs-578T > 100 µM | SNB-19 > 100 µM | A549 > 100 µM | NCI/ADR-RES > 100 µM | HCT-116 > 100 µM | SNB-75 > 100 µM | SK-OV-3 > 100 µM | OVCAR-3 > 100 µM | SN12C > 100 µM | 786-0 > 100 µM | NCI-H522 > 100 µM

O=c1[nH]c2ccc(Cl)cc2c2oc(-c3ccccc3)nc12
inactive: SF-539 29.3 µM | HOP-92 28.4 µM | MDA-MB-231 19.3 µM | T47D 19.2 µM | MDA-MB-435 51.6 µM | SW-620 44.6 µM | M14 88.5 µM | Hs-578T 15.7 µM | SNB-19 19.8 µM | A549 22.1 µM | NCI/ADR-RES 29.5 µM | HCT-116 16.4 µM | SK-OV-3 24.2 µM | OVCAR-3 21.2 µM | SN12C 21.7 µM | 786-0 16 µM | EKVX 30.5 µM | NCI-H522 16.9 µM

CC(/C=N/N=C1NCCCN1)=N\N=C1NCCCN1
inactive: SF-539 > 100 µM | HOP-92 40.2 µM | MDA-MB-231 > 100 µM | SK-MEL-28 > 100 µM | T47D > 100 µM | MDA-MB-435 > 100 µM | SW-620 > 100 µM | M14 > 100 µM | Hs-578T > 100 µM | SNB-19 > 100 µM | A549 > 100 µM | NCI/ADR-RES > 100 µM | HCT-116 > 100 µM | SNB-75 > 100 µM | SK-OV-3 > 100 µM | OVCAR-3 > 100 µM | SN12C > 100 µM | 786-0 > 100 µM | EKVX > 100 µM | NCI-H522 > 100 µM

c1ccc(-c2cn3c(nc4ccccc43)c(-c3ccccc3)n2)cc1
inactive: SF-539 27.9 µM | HOP-92 16.9 µM | MDA-MB-231 > 100 µM | SK-MEL-28 > 100 µM | T47D > 39.6 µM | MDA-MB-435 > 87.7 µM | SW-620 > 100 µM | M14 > 100 µM | Hs-578T 16.3 µM | SNB-19 16.8 µM | A549 > 68.7 µM | NCI/ADR-RES 47.6 µM | HCT-116 > 86.9 µM | SNB-75 14.5 µM | SK-OV-3 10.2 µM | OVCAR-3 > 100 µM | SN12C 65.8 µM | 786-0 16.1 µM | EKVX > 100 µM | NCI-H522 35.2 µM

O=C(O)/C(=C\c1ccccc1)Cc1ccccc1
inactive: SF-539 83 µM | HOP-92 > 100 µM | MDA-MB-231 > 100 µM | SK-MEL-28 > 100 µM | T47D > 100 µM | MDA-MB-435 > 100 µM | SW-620 > 100 µM | M14 > 100 µM | Hs-578T > 100 µM | SNB-19 > 100 µM | A549 > 100 µM | NCI/ADR-RES > 100 µM | HCT-116 > 100 µM | SNB-75 > 100 µM | SK-OV-3 > 100 µM | OVCAR-3 > 100 µM | SN12C > 100 µM | 786-0 > 100 µM | EKVX > 100 µM | NCI-H522 > 100 µM

CCOC(=O)NC(Nc1cccc(C(F)(F)F)c1)(C(F)(F)F)C(F)(F)F
inactive: SF-539 > 100 µM | HOP-92 > 100 µM | MDA-MB-231 > 100 µM | SK-MEL-28 > 100 µM | T47D > 100 µM | MDA-MB-435 > 100 µM | SW-620 > 100 µM | M14 > 100 µM | Hs-578T > 100 µM | SNB-19 > 100 µM | A549 > 100 µM | NCI/ADR-RES > 100 µM | HCT-116 > 100 µM | SNB-75 > 100 µM | SK-OV-3 > 100 µM | OVCAR-3 > 100 µM | SN12C > 100 µM | 786-0 > 100 µM | EKVX > 100 µM | NCI-H522 > 100 µM

COc1ccc(C(=O)Cn2c(C(C)=O)nc3ccccc32)cc1
inactive: SF-539 > 53.5 µM | HOP-92 12.7 µM | MDA-MB-231 4.82 µM | SK-MEL-28 > 46.7 µM | T47D 5.28 µM | MDA-MB-435 13.5 µM | SW-620 5.56 µM | M14 17.5 µM | Hs-578T 23.2 µM | SNB-19 > 34.1 µM | A549 5.31 µM | NCI/ADR-RES 3.55 µM | HCT-116 6.15 µM | SNB-75 > 100 µM | SK-OV-3 14.7 µM | OVCAR-3 6.31 µM | SN12C 16.4 µM | 786-0 6.59 µM | EKVX 76.9 µM | NCI-H522 3.86 µM

CCOC(=O)N/N=C/C1=NN(C(=O)OCC)[S+]([O-])C1C (centres undefined)
inactive: SF-539 > 100 µM | HOP-92 > 100 µM | MDA-MB-231 > 100 µM | SK-MEL-28 > 100 µM | T47D > 100 µM | MDA-MB-435 > 100 µM | SW-620 > 100 µM | M14 > 100 µM | Hs-578T > 100 µM | SNB-19 > 100 µM | A549 > 100 µM | NCI/ADR-RES > 100 µM | HCT-116 > 100 µM | SNB-75 > 100 µM | SK-OV-3 > 100 µM | OVCAR-3 > 100 µM | SN12C > 100 µM | 786-0 > 100 µM | EKVX > 100 µM | NCI-H522 > 100 µM

C=CCN(CCNS(=O)(=O)c1ccc(C)cc1)S(=O)(=O)c1ccc(C)cc1
inactive: SF-539 75.9 µM | HOP-92 > 69.3 µM | MDA-MB-231 > 100 µM | SK-MEL-28 > 91.4 µM | T47D > 51.1 µM | MDA-MB-435 > 57.9 µM | SW-620 > 82.2 µM | M14 14 µM | Hs-578T > 52.4 µM | SNB-19 > 76.6 µM | A549 13.9 µM | NCI/ADR-RES > 60.5 µM | HCT-116 34.2 µM | SNB-75 15.1 µM | SK-OV-3 12.9 µM | OVCAR-3 19 µM | SN12C > 72.6 µM | 786-0 61.8 µM | EKVX 31.9 µM | NCI-H522 12.9 µM

CC(C)=CCCC(C)C1=C(O)C(=O)C(C)=CC1=O (centres undefined)
inactive: SF-539 19.6 µM | HOP-92 1.73 µM | MDA-MB-231 2.98 µM | SK-MEL-28 4.24 µM | T47D 2.07 µM | MDA-MB-435 16.7 µM | SW-620 5.94 µM | M14 17.2 µM | Hs-578T 25.1 µM | SNB-19 38.1 µM | A549 45.5 µM | NCI/ADR-RES 12.2 µM | HCT-116 4.71 µM | SNB-75 18.4 µM | SK-OV-3 28.1 µM | OVCAR-3 7.53 µM | SN12C 14.7 µM | 786-0 5.86 µM | EKVX 5.94 µM | NCI-H522 2.1 µM

Cc1ccc(C(=O)/C=C(O)/C(O)=C/C(=O)c2ccc(C)cc2C)c(C)c1
inactive: SF-539 1.85 µM | HOP-92 2.9 µM | MDA-MB-231 2.34 µM | SK-MEL-28 1.86 µM | T47D 2.05 µM | MDA-MB-435 2.01 µM | SW-620 2.37 µM | M14 1.93 µM | Hs-578T 2.21 µM | SNB-19 2.49 µM | A549 2.48 µM | NCI/ADR-RES 1.92 µM | HCT-116 2.32 µM | SNB-75 1.95 µM | SK-OV-3 1.94 µM | OVCAR-3 1.76 µM | SN12C 2.1 µM | 786-0 2.03 µM | EKVX 2.34 µM | NCI-H522 1.64 µM

C=C1CC[C@@]2(C)[C@@H]([C@@H]1C)[C@H]1CC[C@@H]3[C@@]4(C)CC[C@H](O)C(C)(C)[C@@H]4CC[C@@]3(C)[C@]1(C)C[C@@H]2O
inactive: SF-539 2.45 µM | HOP-92 1.99 µM | MDA-MB-231 1.96 µM | SK-MEL-28 4.12 µM | T47D 2.55 µM | MDA-MB-435 4.22 µM | SW-620 4.03 µM | M14 4.66 µM | Hs-578T 2.69 µM | SNB-19 2.32 µM | A549 2.05 µM | NCI/ADR-RES 3.27 µM | HCT-116 2.99 µM | SK-OV-3 3.79 µM | OVCAR-3 2.37 µM | SN12C 2.52 µM | 786-0 2.7 µM | EKVX 3 µM | NCI-H522 1.95 µM

CC1(C)CC(=O)C(=CNc2nc(-c3cccc([N+](=O)[O-])c3)cs2)C(=O)C1
inactive: SF-539 20.8 µM | HOP-92 17.3 µM | MDA-MB-231 18.5 µM | T47D 18.1 µM | MDA-MB-435 21.4 µM | SW-620 11.9 µM | M14 15.8 µM | Hs-578T 18.9 µM | SNB-19 15.3 µM | A549 66.1 µM | NCI/ADR-RES 18 µM | HCT-116 14.9 µM | SNB-75 14.9 µM | SK-OV-3 32.7 µM | OVCAR-3 29 µM | SN12C 18.1 µM | 786-0 15.1 µM | EKVX 14.7 µM | NCI-H522 9.04 µM
